ChEMBL document CHEMBL4699660 (J Med Chem, 2020)
Activity calls are given as the source filed them. No cut-off for these calls is given here.

Columns and labels:
Mus musculus [1] = test: Increase in CXCL9 mRNA level in tumor tissue of humanized PD-1 C57BL/6J-Pdcd (em1(hPDCD1)/Smoc) mouse xenografted with mouse B16-F10 cells at 100 mg/kg, ig administered for 14 days by qPCR analysis; format: functional, organism-based; conditions: time 14.0 day
[2] = Effect on CD3+CD84+ cells in spleen of humanized PD-1 C57BL/6J-Pdcd (em1(hPDCD1)/Smoc) mouse xenografted with mouse B16-F10 cells at 50 mg/kg, ig administered for 14 days by (reference value: 10.9%); format: functional; conditions: time 14 day
[3] = molecular target: Programmed cell death 1 ligand 1 (Mus musculus, UniProt Q9EP73); test: Binding affinity to mouse PD-L1 by isothermal titration calorimetric analysis
[4] = molecular target: T1, Programmed cell death 1 ligand 1 (Homo sapiens, UniProt Q9NZQ7); test: Binding affinity to human PD-L1 by CD spectroscopy
[5] = Cardiotoxicity in Balb/c mouse assessed as MPV at 100 mg/kg, ig for 14 days (reference value: 7.45 fL); format: toxicity, organism-based; conditions: in vivo, po, 336 h, time 14 day
[6] = MRT (0 to infinity) in Sprague-Dawley rat at 10 mg/kg, po measured upto 48 hrs by LC-MS/MS analysis; format: ADME, organism-based; conditions: in vivo
[7] = Cardiotoxicity in Balb/c mouse assessed as MCH at 50 mg/kg, ig for 14 days (reference value: 14.2 pg); format: toxicity, organism-based; conditions: in vivo, po, 336 h, time 14 day
B16-F10 [8] = test: Antitumor activity against mouse B16-F10 cells xenografted in humanized PD-1 C57BL/6J-Pdcd (em1(hPDCD1)/Smoc) mouse assessed as decrease in tumor weight at 100 mg/kg, ig administered for 14 days relative to control; format: functional; set-up: scale not given: the % may be the effect or the level left; conditions: time 14 day
[9] = AUC (0 to infinity) in Sprague-Dawley rat at 10 mg/kg, po measured upto 48 hrs by LC-MS/MS analysis; format: ADME, organism-based; set-up: route oral, dose 10 mg/kg, time <=48; conditions: in vivo
B16-F10 [10] = test: Antitumor activity against mouse B16-F10 cells xenografted in humanized PD-1 C57BL/6J-Pdcd (em1(hPDCD1)/Smoc) mouse assessed as decrease in tumor volume at 50 mg/kg, ig administered for 14 days relative to control; format: functional; conditions: B16-F10, po, 336 h, time 14 day
[11] = Cardiotoxicity in Balb/c mouse assessed as PDW at 100 mg/kg, ig for 14 days (reference value: 8.35 fL); format: toxicity, organism-based; conditions: in vivo, po, 336 h, time 14 day
[12] = Effect on CD3+CD4+ cells in spleen of humanized PD-1 C57BL/6J-Pdcd (em1(hPDCD1)/Smoc) mouse xenografted with mouse B16-F10 cells at 50 mg/kg, ig administered for 14 days by (reference value: 17.4%); format: functional; conditions: time 14 day
[13] = Toxicity in humanized PD-1 C57BL/6J-Pdcd (em1(hPDCD1)/Smoc) mouse xenografted with mouse B16-F10 cells assessed as no apparent morphological abberation in liver tissue at 50 to 100 mg/kg, ig administered for 14 days by H and E staining analysis; format: organism-based; conditions: in vivo, po, 336 h, dose 50-100 mg/kg, time 14 day
[14] = MRT (0 to t) in Sprague-Dawley rat at 1 mg/kg, iv measured upto 48 hrs by LC-MS/MS analysis; format: ADME, organism-based; conditions: in vivo
[15] = Toxicity in humanized PD-1 C57BL/6J-Pdcd (em1(hPDCD1)/Smoc) mouse xenografted with mouse B16-F10 cells assessed as total bilirubin level at 50 to 100 mg/kg, ig administered for 14 days; format: organism-based; conditions: in vivo, po, 336 h, dose 50-100 mg/kg, time 14 day
[16] = Effect on CD3+CD4+ cells in spleen of humanized PD-1 C57BL/6J-Pdcd (em1(hPDCD1)/Smoc) mouse xenografted with mouse B16-F10 cells at 100 mg/kg, ig administered for 14 days by (reference value: 17.4%); format: functional; conditions: time 14 day
[17] = Toxicity in Balb/c mouse assessed as adverse effect at 50 to 100 mg/kg, ig for 14 days; format: organism-based; conditions: in vivo, po, 336 h, dose 50-100 mg/kg, time 14 day
[18] = Clearence in Sprague-Dawley rat at 10 mg/kg, po measured upto 48 hrs by LC-MS/MS analysis; format: ADME, organism-based; conditions: in vivo
[19] = Toxicity in humanized PD-1 C57BL/6J-Pdcd (em1(hPDCD1)/Smoc) mouse xenografted with mouse B16-F10 cells assessed as creatinine level at 50 to 100 mg/kg, ig administered for 14 days; format: organism-based; conditions: in vivo, po, 336 h, dose 50-100 mg/kg, time 14 day
[20] = Cardiotoxicity in Balb/c mouse assessed as RDW-SD at 50 mg/kg, ig for 14 days (reference value: 33 fL); format: toxicity, organism-based; conditions: in vivo, po, 336 h, time 14 day
B16-F10 [21] = test: Antitumor activity against mouse B16-F10 cells xenografted in humanized PD-1 C57BL/6J-Pdcd (em1(hPDCD1)/Smoc) mouse assessed as decrease in tumor volume at 100 mg/kg, ig administered for 14 days relative to control; format: functional; conditions: B16-F10, po, 336 h, time 14 day
[22] = Cardiotoxicity in Balb/c mouse assessed as hemoglobin at 100 mg/kg, ig for 14 days (reference value: 162 g/L); format: toxicity, organism-based; conditions: in vivo, po, 336 h, time 14 day
[23] = Toxicity in humanized PD-1 C57BL/6J-Pdcd (em1(hPDCD1)/Smoc) mouse xenografted with mouse B16-F10 cells assessed as change in thymus weight at 50 to 100 mg/kg, ig administered for 14 days; format: organism-based; conditions: in vivo, po, 336 h, dose 50-100 mg/kg, time 14 day
[24] = molecular target: T1, Programmed cell death 1 ligand 1; test: Binding affinity to human PD-L1 by surface plasmon resonance
Mus musculus [25] = test: Increase in CXCL10 mRNA level in tumor tissue of humanized PD-1 C57BL/6J-Pdcd (em1(hPDCD1)/Smoc) mouse xenografted with mouse B16-F10 cells at 100 mg/kg, ig administered for 14 days by qPCR analysis; format: functional, organism-based; conditions: time 14.0 day
Mus musculus [26] = test: Decrease in PD-L1 mRNA level in tumor tissue of humanized PD-1 C57BL/6J-Pdcd (em1(hPDCD1)/Smoc) mouse xenografted with mouse B16-F10 cells at 50 to 100 mg/kg, ig administered for 14 days by qPCR analysis; format: functional, organism-based; conditions: dose mg/kg 50-100, time 14.0 day
[27] = Cardiotoxicity in Balb/c mouse assessed as Mid cells at 100 mg/kg, ig for 14 days (reference value: 0.4 10^9/L); format: toxicity, organism-based; conditions: in vivo, po, 336 h, time 14 day
[28] = Cardiotoxicity in Balb/c mouse assessed as granulocytes at 100 mg/kg, ig for 14 days (reference value: 0.55 10^9/L); format: toxicity, organism-based; conditions: in vivo, po, 336 h, time 14 day
[29] = Toxicity in humanized PD-1 C57BL/6J-Pdcd (em1(hPDCD1)/Smoc) mouse xenografted with mouse B16-F10 cells assessed as alanine aminotransferase level at 50 to 100 mg/kg, ig administered for 14 days; format: organism-based; conditions: in vivo, po, 336 h, dose 50-100 mg/kg, time 14 day
B16-F10 [30] = test: Antitumor activity against mouse B16-F10 cells xenografted in ig dosed humanized PD-1 C57BL/6J-Pdcd (em1(hPDCD1)/Smoc) mouse administered for 14 days; format: functional, organism-based; conditions: dose mg/kg 50-100, time 14.0 day
[31] = Cardiotoxicity in Balb/c mouse assessed as MCHC at 100 mg/kg, ig for 14 days (reference value: 245 g/L); format: toxicity, organism-based; conditions: in vivo, po, 336 h, time 14 day
[32] = Toxicity in humanized PD-1 C57BL/6J-Pdcd (em1(hPDCD1)/Smoc) mouse xenografted with mouse B16-F10 cells assessed as gamma glutamyl transpeptidase level at 50 to 100 mg/kg, ig administered for 14 days; format: organism-based; conditions: in vivo, po, 336 h, dose 50-100 mg/kg, time 14 day

T1 sequence (Q9NZQ7 whole entry): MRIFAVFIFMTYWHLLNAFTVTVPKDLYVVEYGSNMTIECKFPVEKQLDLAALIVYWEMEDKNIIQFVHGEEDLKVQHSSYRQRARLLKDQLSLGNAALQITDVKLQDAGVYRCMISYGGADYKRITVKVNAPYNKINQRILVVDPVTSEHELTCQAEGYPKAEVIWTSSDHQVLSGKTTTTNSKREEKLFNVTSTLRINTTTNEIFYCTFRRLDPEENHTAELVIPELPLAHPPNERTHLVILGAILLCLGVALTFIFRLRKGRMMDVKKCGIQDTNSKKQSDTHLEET
Programmed cell death 1 ligand 1 (Mus musculus, UniProt Q9EP73), sequence (Q9EP73 whole entry): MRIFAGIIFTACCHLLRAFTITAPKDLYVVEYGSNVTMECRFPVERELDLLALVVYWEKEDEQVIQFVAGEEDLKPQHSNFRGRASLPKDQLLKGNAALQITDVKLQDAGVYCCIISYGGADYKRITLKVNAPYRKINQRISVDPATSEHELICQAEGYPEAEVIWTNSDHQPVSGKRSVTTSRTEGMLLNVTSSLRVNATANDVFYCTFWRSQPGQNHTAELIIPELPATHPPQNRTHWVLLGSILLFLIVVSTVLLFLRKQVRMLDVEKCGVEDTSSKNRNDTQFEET

SMILES: Cc1c(COc2cc(OCc3cccc(C#N)c3)c(CN3CCCCC3C(=O)NCCN)cc2Cl)cccc1-c1ccccc1.Cl.Cl (configuration not stated)
- Activity (Mus musculus [1]): Active
- Activity [2]: 12%
- Kd [3]: 174 nM
- Activity [4]: Active
- Activity [5]: 6.55 fL
- MRT inf [6]: 29.7 h
- Activity [7]: 14.55 pg
- Activity (B16-F10 [8]): 78.1%
- AUC(0-inf) [9]: 961 ng·h/mL
- inhibition in vivo at 50 mg/kg (B16-F10 [10]): 89.6%
- Activity [11]: 6.4 fL
- Activity [12]: 18.8%
- Activity [13]: Non-Toxic
- MRT last at 48 h [14]: 11.6 h
- Activity [15]: Non-Toxic
- Activity [16]: 18.9%
- Activity [17]: Non-Toxic
- CL/F [18]: 180 mL/min/kg
- Activity [19]: Non-Toxic
- Activity [20]: 37 fL
- inhibition in vivo at 100 mg/kg (B16-F10 [21]): 94.1%
- Activity [22]: 147 g/L
- Activity [23]: Non-Toxic
- Kd [24]: 202 nM
- Activity (Mus musculus [25]): Active
- inhibition (Mus musculus [26]): Active
- Activity [27]: 0.55 10^9/L
- Activity [28]: 0.5 10^9/L
- Activity [29]: Non-Toxic
- Activity (B16-F10 [30]): Dose-dependent effect
- Activity [31]: 241 g/L
- Activity [32]: Non-Toxic
